What is called half-life is the time in which the quantity being followed falls by half. In general, IC50 refers to the concentration at which inhibition is half-maximal. The low end stands for greater potency, the high end for weaker potency.

21 compounds from patent EP4745139A1, “COMPOUND FOR TREATING AND PREVENTING RESPIRATORY SYNCYTIAL VIRUS INFECTION DISEASES” (CSPC Zhongqi Pharmaceutical Technology (Shijiazhuang) Co., …, priority 2023, dated 2025) can be followed below.

SMILES strings stand for the structures. Where only a bound is given, the exact number is not on record here.

Data set [1] can be described thus: Pharmacokinetic experiment in mice after intragastric administration (plasma and lung tissue, LC/MS/MS). As to conditions: ICR, mouse, intragastric administration at 20 mg/kg; for concentration at 6 h: lung, oral, read-out: Lung tissue drug concentration at 6 h; for half-life: plasma, po. Format: in vivo. As for the experimental part:
The compounds of the present invention for intragastric administration were dissolved in a suitable solvent to form a clear solution or suspension.
Administration mode and dosage: The compounds of the present invention were administered intragastrically at 10 mg/kg or 20 mg/kg.
Number of animals: 3 ICR mice per group for intragastric administration.
Sample collection: For the intragastric administration group, 100 µL of blood was collected (using pre-heparinized 100 µL Capillary Blood Collection Tubes) from the orbital vein of mice at 0.25 h, 0.5 h, 1 h, 2 h, 4 h, and 6 h after administration and placed in heparin sodium anticoagulant tubes. Mice plasma samples were obtained by centrifugation at 3000 g for 10 minutes within 2 hours. For the intragastric administration group, clean blood was collected at 6-hour time point and then lung tissues were collected.
Sample treatment: Plasma and lung tissue homogenates were subjected to protein precipitation with methanol at a certain ratio, and the supernatant was taken and diluted with 50% methanol-water at a certain ratio for sample loading.
Sample detection: The drug concentration in plasma was detected by the LC/MS/MS method, and the drug-time curve was plotted. Pharmacokinetic parameters (such as T1/2(h)/AUC0-t) were calculated by non-compartmental model statistical moments to describe the pharmacokinetic behavior of the compounds in mice after administration.
Data processing: Pharmacokinetic parameters were calculated by WinNonlin.

The next data set deals with RSV strain A2. Kind of data set: Antiviral detection test against RSV strain A2 based on ELISA method (Hep-2 cells). Format: cell-based, Respiratory Syncytial Virus. As to conditions: for IC50: human respiratory syncytial virus, RSV A2 virus strain, Hep-2 cells, ELISA OD450; for AK0529 IC50 / IC50 of the compounds of the present invention: ratio of IC50 values against RSV A2 virus strain, control compound AK0529. As for the experimental part:
Test Example 1: Antiviral detection test of small molecules against RSV strain A2 based on ELISA method
• Source of cell line: Nanjing Kebai Biotechnology Co., Ltd. • Cell type: human laryngeal carcinoma epithelial cells Hep-2
• 96-well culture plate (Cat.No. 3610, Corning Costar); • Fetal bovine serum (Cat.No. 10099-141, GIBCO); • DMEM medium (Cat.No. 11995500BT, GIBCO); • Envision 2104 microplate reader.
• 1. Day 1: The Hep-2 cells were seeded into a 96-well plate at a density of 1×10^4 cells/well; • 2. Day 2: • A. Compound dilution: The compound in the first well was diluted to 9 µM, and 3-fold gradient dilution was performed, with a total of 10 gradients; • B. The Hep-2 cell plate prepared on Day 1 was taken out from the incubator, the supernatant was discarded, and 100 PFU/well/50 µL of the RSV A2 virus was added to each well. The plate was stood at 37°C in a 5% CO2 incubator for 2 hours, the supernatant was aspirated and discarded, and then 100 µL of the gradient-diluted compound or DMEM maintenance medium containing 2% FBS was added to each well; • 3. Day 5: • A. Add fixative: The gradient-diluted compound or medium was discarded from the wells, and 100 µL/well of fixative (4% paraformaldehyde) was added. The plate was stood at room temperature for 10 minutes, and then was washed once with 250 µL PBS; • B. 100 µL/well of a blocking solution was added, and the plate was incubated at 37°C in a 5% CO2 incubator for 30 minutes; • C. After incubation, the detection antibody (Anti RSV Fpro) was added at 0.3 µg/50 µL/well (6 µg/mL), and the plate was incubated at 37°C in a 5% CO2 incubator for 1 hour; • D. After incubation, the HRP secondary antibody was added (diluted 10,000-fold with 0.2% BSA), and the plate was incubated at 37°C in a 5% CO2 incubator for 1 hour; • E. After incubation, the wells were washed for 4 times with PBST, 250 µL/well, each washing was allowed to stand for 5 minutes, and the liquid in the wells was shaken off after completion of the washing; • F. 100 µL/well of a development solution was added, the plate was incubated at room temperature in the dark for 20 minutes, and 50 µL/well of a reaction termination solution was added. The plate was tapped gently to mix the solutions, and the absorbance at 450 nm was measured using the microplate reader. • 4. Data analysis • Inhibition rate of the compound against the virus = 100% - (SC - CC)/(VC - CC) × 100% • SC: OD450 value of the sample (cells + test compound + virus) • CC: OD450 value of the normal growing cell control (cells) • VC: OD450 value of the virus growth control (cells + virus)
The software Graphpad Prism 6 was used, and the calculation formula XY-analysis/Nonlinear regression (curve fit)/Dose response-Inhibition/log (inhibition) vs. response-Variable slope (four parameters) was adopted to fit the IC50 curve and calculate the IC50 value.
Background: ELISA stands for enzyme-linked immunosorbent assay.

Regarding `Cc1ccc2nc(N3CCS(=O)(=NC4CC4)c4ccccc4C3)nc(N3CC4C(N)C4C3)c2c1` (stereo not shown) [Example 4-8, 4-(4-(6-amino-3-azabicyclo[3.1.0]hexan-3-yl)-6-methylquinazolin-2-yl)-1-(cyclopropylimino)-2,3,4,5-tetrahydro-benzo[f][1,4]thiazepine-1-oxide], in data set [1], the concentration at 6 h came out at 25300 ng/g and the half-life is 648 min.
For `Cc1ccc2nc(N3CCS(=O)(=NC4CC4)c4ccccc4C3)nc(N3CC(CN)C3)c2c1` (stereo not shown) [Example 4-9, 4-(4-(3-(aminomethyl)azetidin-1-yl)-6-methylquinazolin-2-yl)-1-(cyclopropylimino)-2,3,4,5-tetrahydro-benzo[f][1,4]thiazepine-1-oxide], in the data set on RSV strain A2, the IC50 is below 10 nM. Also, in data set [1], the concentration at 6 h was 5920 ng/g and the half-life is 373 min.
For `Cc1ccc2nc(N3CCS(=O)(=NC4CC4)c4ccccc4C3)nc(N3CC[C@@H](N)C3)c2c1` (stereo partly shown) [Example 4-12] the same measures were below 10 nM, 29700 ng/g and 386 min.
For the compound `Cc1ccc2nc(N3CCS(=O)(=NC4CC4)c4ccccc4C3)nc(NCC3(N)COC3)c2c1C` (stereo not shown) [Example 4-15, 4-(4-(((3-aminooxetan-3-yl)methyl)amino)-5,6-dimethylquinazolin-2-yl)-1-(cyclopropylimino)-2,3,4,5-tetrahydro-benzo[f][1,4]thiazepine-1-oxide], in data set [1], the concentration at 6 h worked out at 5130 ng/g and the half-life was 96.6 min.
With `NC1CN(c2nc(N3CCS(=O)(=NC4CC4)c4ccccc4C3)nc3ccc(C(F)F)cc23)C1` (stereo not shown) [Example 4-17, 4-(4-(3-aminoazetidin-1-yl)-6-(difluoromethyl)quinazolin-2-yl)-1-(cyclopropylimino)-2,3,4,5-tetrahydro-benzo[f][1,4]thiazepine-1-oxide], in the data set with RSV strain A2, the IC50 is below 10 nM and the “AK0529 IC50 / IC50 of the compounds of the present invention” value (shortened to “AK0529 IC50 / IC50”) was “ratio ≥20”. For the same compound, in data set [1], the concentration at 6 h is 75800 ng/g and the half-life was 317 min.
For `Cc1ccc2nc(N3CCS(=O)(=NC4CC4)c4ccccc4C3)nc(N[C@H]3CNC[C@@H]3F)c2c1` (stereo partly drawn) [Example 4-24, 1-(cyclopropylimino)-4-(4-(((3S,4S)-4-fluoropyrrolidin-3-yl)amino)-6-methylquinazolin-2-yl)-2,3,4,5-tetrahydrobenzo[f][1,4]thiazepine-1-oxide] the same measures were below 10 nM, “ratio ≥20”, 15400 ng/g and 269 min.
As for `Cc1ccc2nc(N3CCS(=O)(=NC4CCOC4)c4ccccc4C3)nc(N3CC[C@@H](N)C3)c2c1` (stereo partly shown) [Example 4-43], the IC50 in the data set with RSV strain A2 was below 10 nM. Further, in data set [1], the concentration at 6 h worked out at 19200 ng/g and the half-life was 140 min.
As for `COC(=O)C1(CN)CN(c2nc(N3CCS(=O)(=NC4CC4)c4ccccc4C3)nc3ccc(C)cc23)C1` (stereo not shown) [Example 4-57, methyl 3-(aminomethyl)-1-(2-(1-(cyclopropylimino)-1-oxido-1,2,3,5-tetrahydro-benzo[f][1,4]thiazepin-4-yl)-6-methylquinazolin-4-yl)azetidine-3-carboxylate], in the data set on RSV strain A2, the concentration for half-maximal inhibition (IC50) is below 10 nM and the “AK0529 IC50 / IC50” value is recorded as “ratio ≥20”.
Regarding `N[C@H]1CCN(c2nc(N3CCS(=O)(=NC4CC4)c4ccccc4C3)nc3ccc(C(F)F)cc23)C1` (stereo partly drawn) [Example 4-62, 4-(4-((S)-3-aminopyrrolidin-1-yl)-6-(difluoromethyl)quinazolin-2-yl)-1-(cyclopropylimino)-2,3,4,5-tetrahydro-benzo[f][1,4]thiazepine-1-oxide], the IC50 with RSV strain A2 is below 10 nM. The concentration at 6 h in data set [1] was 53100 ng/g.
Compound `CC(O)(CCN=S1(=O)CCN(c2nc(N3CC[C@H](N)C3)c3cc(C(F)F)ccc3n2)Cc2ccccc21)C(F)(F)F` (stereo partly drawn) [Example 4-63, 4-(4-((S)-3-aminopyrrolidin-1-yl)-6-(difluoromethyl)quinazolin-2-yl)-1-((4,4,4-trifluoro-3-hydroxy-3-methylbutyl)imino)-2,3,4,5-tetrahydro-benzo[f] [1,4]thiazepine-1-oxide] displayed an IC50 in the data set with RSV strain A2 below 10 nM.
The same measure, in the same setting: to `Cc1ccc2nc(N3CCS(=O)(=NCCCO)c4ccccc4C3)nc(N3CC[C@H](N)C3)c2c1` (stereo partly shown) [Example 4-64] belongs below 10 nM; to `Cc1ccc2nc(N3CCS(=O)(=NCCS(C)(=O)=O)c4ccccc4C3)nc(N3CC[C@H](N)C3)c2c1` (stereo partly shown) [Example 4-65], below 10 nM; to `N[C@H]1CCN(c2nc(N3CCS(=O)(=NCCCO)c4ccccc4C3)nc3ccc(C(F)F)cc23)C1` (stereo partly shown) [Example 4-66], below 10 nM.
Consider `Cc1ccc2nc(N3CCS(=O)(=NC4CCOC4)c4ccccc4C3)nc(N3CC[C@H](N)C3)c2c1` (stereo partly shown) [Example 4-67], for which the concentration for half-maximal inhibition (IC50) with RSV strain A2 is below 10 nM. Besides, in data set [1], the concentration at 6 h was determined as 8220 ng/g and the half-life is 130 min.
For `COCC(C)N=S1(=O)CCN(c2nc(N3CC[C@H](N)C3)c3cc(C)ccc3n2)Cc2ccccc21` (stereo partly shown) [Example 4-69] the same measures were below 10 nM, 6010 ng/g and 137 min.
`Cc1ccc2nc(N3CCS(=O)(=NCC4CCCO4)c4ccccc4C3)nc(N3CC[C@H](N)C3)c2c1` (stereo partly shown) [Example 4-70] registered an IC50 with RSV strain A2 below 10 nM.
`COCCCN=S1(=O)CCN(c2nc(N3CC[C@H](N)C3)c3cc(C)ccc3n2)Cc2ccccc21` (stereo partly shown) [Example 4-71] displayed an IC50 in the data set with RSV strain A2 below 10 nM.
Consider `Cc1ccc2nc(N3CCS(=O)(=NCC4CCOC4)c4ccccc4C3)nc(N3CC[C@H](N)C3)c2c1` (stereo partly shown) [Example 4-72], for which the half-maximal inhibitory concentration (IC50) in the data set with RSV strain A2 was below 10 nM.
The same measure, in the same setting: for `COCCCN=S1(=O)CCN(c2nc(N3CC[C@@H](N)C3)c3cc(C)ccc3n2)Cc2ccccc21` (stereo partly shown) [Example 4-73] the value was below 10 nM.
Turning to `N[C@H]1CCN(c2nc(N3CCS(=O)(=NCC4CCO4)c4ccccc4C3)nc3ccc(C(F)F)cc23)C1` (stereo partly drawn) [Example 4-74, 4-(4-((S)-3-aminopyrrolidin-1-yl)-6-(difluoromethyl)quinazolin-2-yl)-1-((oxetan-2-ylmethyl)imino)-2,3,4,5-tetrahydro-benzo[f][1,4]thiazepine-1-oxide], in the data set with RSV strain A2, the 50% inhibitory concentration (IC50) was below 10 nM and the “AK0529 IC50 / IC50” value is reported as “ratio ≥20”. In addition, in data set [1], the concentration at 6 h was determined as 7170 ng/g and the half-life was 149 min.
Consider `Cc1ccc2nc(N3CCS(=O)(=NC4CC4)c4ccccc4C3)nc(N3CC(N)C3)c2c1` (stereo not shown) [Example 4-76, 4-(4-(3-aminoazetidin-1-yl)-6-methylquinazolin-2-yl)-1-(cyclopropylimino)-2,3,4,5-tetrahydrobenzo[f][1,4]thiazepine-1-oxide], for which, in the data set on RSV strain A2, the IC50 was below 10 nM and the “AK0529 IC50 / IC50” value is “ratio ≥20”. The concentration at 6 h in data set [1] was determined as 28800 ng/g.
